Measured values: patent US20090181981A1, “CRYSTALLINE (R)-2-(4-CYCLOPROPANESULPHONYL-PHENYL)-N-PYRAZIN-2-YL-3-(TETRAHYDROPYRAN-4-YL)-PROPIONAMIDE” (priority 2008, published 2009)
Values belong to the compound of their own block, whether it stands above or below them.

Key:
[1] = pKa by photometric titration; assay type: physicochemical; conditions: determined by photometric titration
From the text: Salt formation was also extensively investigated. However, formation of isolable CPTP salts is hampered by the low pK (pKa1=0.17, determined by photometric titration) of CPTP.

[2] = Crystalline CPTP stability summary (storage at controlled temperature and relative humidity); assay type: physicochemical; conditions: for Chiral Purity: chiral HPLC area percent; for Achiral Purity: total impurities by achiral HPLC
Method: (§1) Crystalline CPTP has an onset of melting as measured by differential scanning calorimetry of 156° C., which renders it acceptable for standard industrial processes such as milling. […]

[3] = Hygroscopicity and storage at ambient temperature; assay type: physicochemical
Method: (§2) Glucokinase is important in regulation of plasma glucose levels. It is thought that GK activators increase a body's sensitivity to glucose. Consequently, GK activators are effective in the treatment of hyperglycemia, insulin resistance, and diabetes, particularly in type II diabetes. […] (WO2004/072031) However, amorphous CPTP is not suitable for pharmaceutically elegant drug formulation.
as §1

Glucokinase (GK) [4] = conditions: WO2004/072031; cited from earlier work
[5] = Glass transition temperature / thermal stability of the solid; assay type: physicochemical; conditions: as evidenced by low glass transition temperature
From the text: as §2

Glucokinase (GK) [6] = molecular target: T1, Glucokinase (GK) (Homo sapiens, UniProt P35557); conditions: WO2004/072031; cited from earlier work
T1 sequence (P35557 1-465): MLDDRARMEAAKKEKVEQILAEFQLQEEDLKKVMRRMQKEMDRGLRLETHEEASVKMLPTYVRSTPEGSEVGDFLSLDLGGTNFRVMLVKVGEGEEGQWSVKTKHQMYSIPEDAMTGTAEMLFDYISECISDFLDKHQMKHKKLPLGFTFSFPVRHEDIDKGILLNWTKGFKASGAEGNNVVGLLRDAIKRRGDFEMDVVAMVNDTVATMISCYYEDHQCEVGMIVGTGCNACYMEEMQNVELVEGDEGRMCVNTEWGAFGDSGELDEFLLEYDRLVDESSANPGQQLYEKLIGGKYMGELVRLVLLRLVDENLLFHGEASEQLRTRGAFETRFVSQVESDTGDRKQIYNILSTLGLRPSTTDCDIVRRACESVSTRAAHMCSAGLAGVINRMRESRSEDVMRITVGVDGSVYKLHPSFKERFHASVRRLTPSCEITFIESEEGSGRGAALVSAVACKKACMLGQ

[7] = 25° C. 60% relative humidity, 1 month
[8] = 25° C. 60% relative humidity, 3 months
[9] = 25° C. 60% relative humidity, Initial
[10] = 40° C. 60% relative humidity, 1 Month
[11] = 40° C. 60% relative humidity, 3 Months
[12] = 40° C. 60% relative humidity, Initial

pKa1 [1]: 0.17
Structure (SMILES): O=C(Nc1cnccn1)[C@H](CC1CCOCC1)c1ccc(S(=O)(=O)C2CC2)cc1 [CPTP, R-2-(4-cyclopropanesulfonyl-phenyl)-N-pyrazin-2-yl-3-(tetrahydropyran-4-yl)-propionamide]

Appearance [2, 7]: White
Assay [2, 7]: 99.9 % w/w
Total Impurities [2, 7]: 0.18%
Water [2, 7]: <0.10 % w/w
Appearance [2, 8]: White
Assay [2, 8]: 99.6 % w/w
Total Impurities [2, 8]: 0.23%
Water [2, 8]: <0.01 % w/w
Appearance [2, 9]: White
Assay [2, 9]: 100.3 % w/w
Total Impurities [2, 9]: 0.25%
Water [2, 9]: <0.07 % w/w
Appearance [2, 10]: White
Assay [2, 10]: 100.1 % w/w
Total Impurities [2, 10]: 0.2%
Water [2, 10]: <0.10 % w/w
Appearance [2, 11]: White
Assay [2, 11]: 99.3 % w/w
Total Impurities [2, 11]: 0.25%
Water [2, 11]: <0.01 % w/w
Appearance [2, 12]: White
Assay [2, 12]: 100.3 % w/w
Total Impurities [2, 12]: 0.25%
Water [2, 12]: <0.07 % w/w
Chiral Purity [2, 7]: 100 % a/a
Chiral Purity [2, 8]: 100 % a/a
Chiral Purity [2, 9]: 100 % a/a
Chiral Purity [2, 10]: 100 % a/a
Chiral Purity [2, 11]: 100 % a/a
Chiral Purity [2, 12]: 100 % a/a
Achiral Purity [2, 7]: 0.18 % a/a
Achiral Purity [2, 8]: 0.23 % a/a
Achiral Purity [2, 9]: 0.25 % a/a
Achiral Purity [2, 10]: 0.20 % a/a
Achiral Purity [2, 11]: 0.25 % a/a
Achiral Purity [2, 12]: 0.25 % a/a
degradation on storage ([3]; stored at ambient temperature): minor or no degradation
hygroscopicity / water uptake ([3]; stored at ambient temperature): remains anhydrous and is not hygroscopic
Structure (SMILES): O=C(Nc1cnccn1)[C@H](CC1CCOCC1)c1ccc(S(=O)(=O)C2CC2)cc1 [Crystalline CPTP, R-2-(4-cyclopropanesulphonyl-phenyl)-N-pyrazin-2-yl-3-(tetrahydropyran-4-yl)-propionamide]

thermal stability [5]: limited thermal stability
hygroscopicity [3]: is hygroscopic
Structure (SMILES): O=C(Nc1cnccn1)[C@H](CC1CCOCC1)c1ccc(S(=O)(=O)C2CC2)cc1 [Amorphous CPTP, R-2-(4-cyclopropanesulfonyl-phenyl)-N-pyrazin-2-yl-3-(tetrahydropyran-4-yl)-propionamide]
activity in in-vivo GK assay (Glucokinase (GK) [4]): active
activity in in-vitro GK assay (Glucokinase (GK) [6]): active
